Tests used:
Type in all cases: binding
[1] = biological target: T1, bovine serum albumin (BSA) (Bos taurus, UniProt P02769); assay: in-gel fluorescence after thiol-FITC addition to the adduct; details: covalent; lysine adduct (FDP); 12 h
T1 construct: gene ALB; commercial native protein, mature

[2] = biological target: T2, lysozyme chicken (Gallus gallus, UniProt P00698); assay: intact protein MS and MS/MS; details: covalent; lysine adduct (FDP)
T2 construct: gene LYZ

[3] = biological target: T3, lysozyme human (Homo sapiens, UniProt P61626); assay: intact protein MS and MS/MS; details: covalent; lysine adduct (FDP)
T3 construct: gene LYZ; commercial protein, mature
T3 sequence (P61626 19-148): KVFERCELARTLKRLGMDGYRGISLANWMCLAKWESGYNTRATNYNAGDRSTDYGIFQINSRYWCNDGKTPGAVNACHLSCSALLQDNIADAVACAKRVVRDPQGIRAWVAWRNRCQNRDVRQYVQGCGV

T1 sequence (P02769 25-607): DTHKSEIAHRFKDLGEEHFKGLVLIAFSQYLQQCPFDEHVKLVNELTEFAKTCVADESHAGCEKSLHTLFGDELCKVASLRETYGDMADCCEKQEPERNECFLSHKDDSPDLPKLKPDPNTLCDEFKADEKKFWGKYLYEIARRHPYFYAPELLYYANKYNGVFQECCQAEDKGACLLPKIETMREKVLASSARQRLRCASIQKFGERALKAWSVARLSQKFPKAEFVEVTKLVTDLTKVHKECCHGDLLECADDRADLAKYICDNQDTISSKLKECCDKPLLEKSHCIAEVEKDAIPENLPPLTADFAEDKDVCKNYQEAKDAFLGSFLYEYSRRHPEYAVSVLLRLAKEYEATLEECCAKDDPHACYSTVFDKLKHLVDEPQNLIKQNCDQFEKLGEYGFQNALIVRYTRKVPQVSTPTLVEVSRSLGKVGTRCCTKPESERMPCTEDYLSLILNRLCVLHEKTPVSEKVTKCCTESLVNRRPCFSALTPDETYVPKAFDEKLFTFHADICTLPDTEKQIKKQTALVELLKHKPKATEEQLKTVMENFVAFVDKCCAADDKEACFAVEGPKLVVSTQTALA
T2 sequence (P00698 19-147): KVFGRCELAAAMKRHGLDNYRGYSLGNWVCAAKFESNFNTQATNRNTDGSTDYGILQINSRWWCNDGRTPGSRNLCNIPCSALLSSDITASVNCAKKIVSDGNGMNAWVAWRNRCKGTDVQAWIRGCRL

C=CC=O [acrolein]
in-gel fluorescence after thiol-FITC addition to the adduct [1]: formation of FDP-lysine and labeling of Apo-transferrin, BSA, and myoglobin with FITC fluorophore
intact protein MS and MS/MS [2]: ribonuclease A, lysozyme chicken, lysozyme human, β-lactoglobulin, and apo-Transferrin
intact protein MS and MS/MS [3]: ribonuclease A, lysozyme chicken, lysozyme human, β-lactoglobulin, and apo-Transferrin

Source: PMC11848821, “Acrolein-Mediated Conversion of Lysine to Electrophilic Heterocycles for Protein Diversification and Toxicity Profiling” (Journal of the American Chemical Society, 2025)
